The nature of the data set: Dynamic moisture sorption (DMS) analysis. It counts as physicochemical. To be noted: for XRPD pattern of solid after two consecutive sorption-desorption cycles: 5-90% RH, 25° C.; for total moisture gain: exposed to 5-90% relative humidity, about 25° C.; for hygroscopicity: from DMS data. As for the experimental part: Dynamic moisture sorption (DMS) analysis was performed on weighed samples of the crystalline forms of the compound of Formula I using a VTI atmospheric microbalance, SGA-100 system (VTI Corp., Hialeah, Fla. 33016). Following an initial drying step (approximately 0% RH) of 2 hours, two cycles of sorption and desorption were completed isothermally at 25° C. at a scan rate of 5% RH/step over a humidity range of 5 to 90% RH. Representative DMS traces of polymorph Form I and polymorph Form II of a fumarate salt of the compound of Formula I and polymorph Form III of the compound of Formula I (freebase) are shown in FIG. 4, FIG. 8 and FIG. 12, respectively.

`C[C@@H]1CN(CCNc2cnc3ccc(-c4nc[nH]c4-c4cc(Cl)ccc4F)nc3c2)C[C@H](C)N1.O=C(O)/C=C/C(=O)O` [polymorph Form I, 6-(5-(5-chloro-2-fluorophenyl)-1H-imidazol-4-yl)-N-(2-((3S,5R)-3,5-dimethylpiperazin-1-yl)ethyl)-1,5-naphthyridin-3-amine, fumaric Acid]: the “XRPD pattern of solid after two consecutive sorption-desorption cycles” value (“XRPD pattern of solid” for short) is “no change in form”, the total moisture gain result was “about 1.30 % by weight” and the hygroscopicity result is given as “slightly-hygroscopic”.

As to `C[C@@H]1CN(CCNc2cnc3ccc(-c4nc[nH]c4-c4cc(Cl)ccc4F)nc3c2)C[C@H](C)N1.O=C(O)/C=C/C(=O)O` [polymorph Form II, 6-(5-(5-chloro-2-fluorophenyl)-1H-imidazol-4-yl)-N-(2-((3S,5R)-3,5-dimethylpiperazin-1-yl)ethyl)-1,5-naphthyridin-3-amine, fumaric Acid], the “XRPD pattern of solid” value is given as “no change in form”, the total moisture gain entry is listed as “about 0.85 % by weight” and the hygroscopicity result was “slightly-hygroscopic”.

Regarding `C[C@@H]1CN(CCNc2cnc3ccc(-c4nc[nH]c4-c4cc(Cl)ccc4F)nc3c2)C[C@H](C)N1` [polymorph Form III, 6-(5-(5-chloro-2-fluorophenyl)-1H-imidazol-4-yl)-N-(2-((3S,5R)-3,5-dimethylpiperazin-1-yl)ethyl)-1,5-naphthyridin-3-amine], the “XRPD pattern of solid” value is given as “no change in form”, the total moisture gain entry is listed as “about 0.6 % by weight” and the hygroscopicity entry was “slightly-hygroscopic”.

Source of the values: patent US20210387983A1, “CRYSTALLINE ALK5 INHIBITORS AND USES THEREOF” (THERAVANCE BIOPHARMA R&D IP, LLC, priority 2020, published 2021).
